The numbers were not newly measured in EP0661967B1, “COMBINED VIRUSTATIC ANTIMEDIATOR (COVAM) TREATMENT OF COMMON COLDS” (UNIVERSITY OF VIRGINIA PATENT FOUNDATION, priority 1991, dated 1993), which cites them from elsewhere.

For data set [1], the system named is rhinovirus. To be noted: in vivo.
The subject of data set [2] is rhinovirus.

Take `CC(C)[N+]1(C)[C@@H]2CC[C@H]1C[C@@H](OC(=O)C(CO)c1ccccc1)C2` (some centres unmarked) [ipratropium]: in the data set with rhinovirus [1], the “effect on nasal symptoms and nasal mucus production” value is “mild beneficial effect”; the “mean total symptom scores during four days of treatment” value is given as 10±1.6.

Regarding `COc1ccc2cc([C@H](C)C(=O)O)ccc2c1` [naproxen], the “mean total symptoms score lower than that for the group receiving placebo” value in the data set on rhinovirus [2] (four days of treatment) is recorded as “thirty four”. Besides, the “mean total symptoms score during the four days of treatment” value in the data set with rhinovirus [2] (loading dose 400 or 500 mg, then 200 or 500 mg three times a day for five days, begun 6 hours after virus challenge, placebo 17.35±2.6, p=0.08) is reported as 12±1.65. The “headache, malais, myalgia, and cough” value with rhinovirus [2] (treated group versus placebo) is on record as “significantly reduced”.
